Source: the supplement of paper PMC12463676, “Small-molecule dissolution of stress granules by redox modulation benefits ALS models” (Nature Chemical Biology, 2025)

Assays:
lipoamide = compound: NC(=O)CCCCC1CCSS1 [lipoamide]; assay: thermal stability z-score vs DMSO; higher = more thermally stabilized by treatment; settings: HeLa, lipoamide concentration 100 µM
Experimental: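 Cellular thermal proteome profiling in HeLa cells. Cells were treated with 100 µM lipoamide for 1 h, with or without 1 mM arsenate for a further 1 h, then heated to ten temperatures (37-66.3 °C), and soluble protein was quantified by TMT mass spectrometry relative to 0.1% DMSO controls. The thermal stability score (sum of log2 fold changes minus the abundance score) was transformed to a z-score; mean of n = 3 experiments.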

potassium arsenate = compound: O=[As]([O-])(O)O.[K+] [potassium arsenate]; assay: as above; settings: HeLa; arsenate concentration 1 mM
Experimental: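 Cellular thermal proteome profiling in HeLa cells treated with 1 mM arsenate for 1 h (DMSO pretreatment), heated to ten temperatures (37-66.3 °C). Soluble protein was quantified by TMT mass spectrometry relative to DMSO controls; the thermal stability score was transformed to a z-score; mean of n = 3 experiments.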

[1] = arsenate co-treatment: 1 mM arsenate 1 h
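Further: each temperature applied for 3 min, abundance score taken as mean log2 fold change at the two lowest temperatures, z-score obtained by mean subtraction and division by SD.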

Sequence of UniProt Q5T4F4 (Q5T4F4 whole entry): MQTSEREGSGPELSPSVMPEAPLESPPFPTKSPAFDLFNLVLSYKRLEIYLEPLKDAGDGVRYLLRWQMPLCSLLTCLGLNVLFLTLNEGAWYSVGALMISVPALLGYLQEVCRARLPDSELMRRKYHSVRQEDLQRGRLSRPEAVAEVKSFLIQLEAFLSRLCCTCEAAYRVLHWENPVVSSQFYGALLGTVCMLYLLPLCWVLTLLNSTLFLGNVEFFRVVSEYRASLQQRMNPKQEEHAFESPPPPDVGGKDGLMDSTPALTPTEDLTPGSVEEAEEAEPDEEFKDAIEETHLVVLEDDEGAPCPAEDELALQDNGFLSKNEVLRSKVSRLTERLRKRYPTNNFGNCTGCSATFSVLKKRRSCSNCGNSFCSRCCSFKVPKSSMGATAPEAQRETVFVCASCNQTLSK
Sequence of UniProt Q9H6R6 (Q9H6R6 whole entry): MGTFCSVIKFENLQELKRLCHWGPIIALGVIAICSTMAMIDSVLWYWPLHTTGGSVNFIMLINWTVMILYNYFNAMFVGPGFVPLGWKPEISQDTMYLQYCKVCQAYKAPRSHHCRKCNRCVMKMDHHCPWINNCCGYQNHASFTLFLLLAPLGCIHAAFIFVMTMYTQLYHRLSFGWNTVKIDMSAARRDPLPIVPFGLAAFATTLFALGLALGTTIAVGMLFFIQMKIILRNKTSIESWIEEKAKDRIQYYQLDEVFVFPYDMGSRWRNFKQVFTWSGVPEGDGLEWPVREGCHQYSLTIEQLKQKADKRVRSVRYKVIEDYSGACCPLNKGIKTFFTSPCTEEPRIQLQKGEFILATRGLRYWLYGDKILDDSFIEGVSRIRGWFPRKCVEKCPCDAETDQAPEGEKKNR
Sequence of UniProt Q9H4I2 (Q9H4I2 whole entry): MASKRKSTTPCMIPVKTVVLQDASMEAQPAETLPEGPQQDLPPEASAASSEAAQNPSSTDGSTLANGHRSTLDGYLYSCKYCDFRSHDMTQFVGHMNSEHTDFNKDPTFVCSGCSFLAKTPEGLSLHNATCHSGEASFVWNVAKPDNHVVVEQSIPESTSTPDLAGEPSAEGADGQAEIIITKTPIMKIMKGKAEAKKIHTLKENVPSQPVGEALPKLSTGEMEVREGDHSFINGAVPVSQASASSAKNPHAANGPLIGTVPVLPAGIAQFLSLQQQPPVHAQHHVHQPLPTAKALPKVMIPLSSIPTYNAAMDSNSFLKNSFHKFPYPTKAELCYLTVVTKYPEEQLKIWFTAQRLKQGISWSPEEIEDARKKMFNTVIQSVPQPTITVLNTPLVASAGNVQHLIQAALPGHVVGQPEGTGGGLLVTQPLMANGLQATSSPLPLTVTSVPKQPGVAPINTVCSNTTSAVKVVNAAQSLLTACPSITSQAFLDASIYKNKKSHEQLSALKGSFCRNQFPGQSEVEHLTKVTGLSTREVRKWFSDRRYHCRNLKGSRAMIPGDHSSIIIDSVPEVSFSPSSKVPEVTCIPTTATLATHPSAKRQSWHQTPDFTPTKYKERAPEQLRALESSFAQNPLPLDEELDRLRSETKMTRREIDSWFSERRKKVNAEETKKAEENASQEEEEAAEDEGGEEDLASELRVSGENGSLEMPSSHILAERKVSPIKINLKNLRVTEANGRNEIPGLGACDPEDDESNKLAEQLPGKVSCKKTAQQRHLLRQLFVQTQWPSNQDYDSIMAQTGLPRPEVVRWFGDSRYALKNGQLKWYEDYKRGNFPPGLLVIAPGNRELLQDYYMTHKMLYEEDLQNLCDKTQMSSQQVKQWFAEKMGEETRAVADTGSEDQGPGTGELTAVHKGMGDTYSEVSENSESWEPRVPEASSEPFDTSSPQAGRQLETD
Sequence of UniProt P17029 (P17029 whole entry): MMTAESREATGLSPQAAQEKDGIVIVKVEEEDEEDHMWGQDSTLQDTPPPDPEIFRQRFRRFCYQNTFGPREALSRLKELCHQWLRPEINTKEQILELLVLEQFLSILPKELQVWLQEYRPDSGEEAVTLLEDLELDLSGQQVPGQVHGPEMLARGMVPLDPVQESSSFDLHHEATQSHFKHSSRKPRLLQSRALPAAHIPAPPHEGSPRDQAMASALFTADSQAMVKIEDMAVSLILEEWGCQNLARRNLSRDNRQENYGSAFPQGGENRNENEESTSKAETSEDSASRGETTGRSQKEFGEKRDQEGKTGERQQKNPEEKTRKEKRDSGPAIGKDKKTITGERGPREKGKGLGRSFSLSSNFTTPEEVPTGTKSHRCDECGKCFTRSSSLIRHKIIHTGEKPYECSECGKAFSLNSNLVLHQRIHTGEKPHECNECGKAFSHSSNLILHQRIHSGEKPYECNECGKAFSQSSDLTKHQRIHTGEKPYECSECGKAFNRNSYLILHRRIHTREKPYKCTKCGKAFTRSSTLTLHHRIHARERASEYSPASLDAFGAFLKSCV
Sequence of UniProt Q86T24 (Q86T24 whole entry): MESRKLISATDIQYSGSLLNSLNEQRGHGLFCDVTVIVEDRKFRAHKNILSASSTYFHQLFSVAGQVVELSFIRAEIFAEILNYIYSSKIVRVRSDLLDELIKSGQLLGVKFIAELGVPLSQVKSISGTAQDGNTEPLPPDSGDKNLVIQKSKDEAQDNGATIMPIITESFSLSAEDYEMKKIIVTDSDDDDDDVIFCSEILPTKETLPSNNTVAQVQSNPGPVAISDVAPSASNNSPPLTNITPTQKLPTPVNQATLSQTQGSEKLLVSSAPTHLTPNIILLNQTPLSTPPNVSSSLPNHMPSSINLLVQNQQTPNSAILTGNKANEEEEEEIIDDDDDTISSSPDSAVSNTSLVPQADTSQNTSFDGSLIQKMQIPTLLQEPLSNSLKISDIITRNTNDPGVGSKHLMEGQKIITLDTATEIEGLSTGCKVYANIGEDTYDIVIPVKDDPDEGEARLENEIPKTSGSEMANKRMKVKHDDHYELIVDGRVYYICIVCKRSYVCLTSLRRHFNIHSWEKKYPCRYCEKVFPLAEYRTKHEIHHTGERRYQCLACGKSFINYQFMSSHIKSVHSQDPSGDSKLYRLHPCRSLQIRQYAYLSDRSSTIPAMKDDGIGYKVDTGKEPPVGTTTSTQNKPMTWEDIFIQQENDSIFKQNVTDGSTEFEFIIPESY
Sequence of UniProt Q96JP5 (Q96JP5 whole entry): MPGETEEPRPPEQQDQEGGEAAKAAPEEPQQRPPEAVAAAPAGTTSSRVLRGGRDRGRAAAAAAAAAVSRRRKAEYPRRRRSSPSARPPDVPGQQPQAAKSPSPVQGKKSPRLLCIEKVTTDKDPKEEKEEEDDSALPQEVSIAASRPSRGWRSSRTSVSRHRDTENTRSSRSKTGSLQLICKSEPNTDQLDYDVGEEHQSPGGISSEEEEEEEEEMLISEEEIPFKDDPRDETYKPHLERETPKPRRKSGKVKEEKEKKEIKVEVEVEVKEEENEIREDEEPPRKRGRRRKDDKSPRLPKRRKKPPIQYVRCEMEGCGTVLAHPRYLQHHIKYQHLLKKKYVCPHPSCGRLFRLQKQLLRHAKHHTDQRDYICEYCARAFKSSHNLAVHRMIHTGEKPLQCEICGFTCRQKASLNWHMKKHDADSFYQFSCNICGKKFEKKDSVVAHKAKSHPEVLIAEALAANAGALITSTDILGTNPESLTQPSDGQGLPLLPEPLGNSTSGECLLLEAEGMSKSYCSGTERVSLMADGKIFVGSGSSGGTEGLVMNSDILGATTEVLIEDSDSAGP
Sequence of UniProt Q8NF64 (Q8NF64 whole entry): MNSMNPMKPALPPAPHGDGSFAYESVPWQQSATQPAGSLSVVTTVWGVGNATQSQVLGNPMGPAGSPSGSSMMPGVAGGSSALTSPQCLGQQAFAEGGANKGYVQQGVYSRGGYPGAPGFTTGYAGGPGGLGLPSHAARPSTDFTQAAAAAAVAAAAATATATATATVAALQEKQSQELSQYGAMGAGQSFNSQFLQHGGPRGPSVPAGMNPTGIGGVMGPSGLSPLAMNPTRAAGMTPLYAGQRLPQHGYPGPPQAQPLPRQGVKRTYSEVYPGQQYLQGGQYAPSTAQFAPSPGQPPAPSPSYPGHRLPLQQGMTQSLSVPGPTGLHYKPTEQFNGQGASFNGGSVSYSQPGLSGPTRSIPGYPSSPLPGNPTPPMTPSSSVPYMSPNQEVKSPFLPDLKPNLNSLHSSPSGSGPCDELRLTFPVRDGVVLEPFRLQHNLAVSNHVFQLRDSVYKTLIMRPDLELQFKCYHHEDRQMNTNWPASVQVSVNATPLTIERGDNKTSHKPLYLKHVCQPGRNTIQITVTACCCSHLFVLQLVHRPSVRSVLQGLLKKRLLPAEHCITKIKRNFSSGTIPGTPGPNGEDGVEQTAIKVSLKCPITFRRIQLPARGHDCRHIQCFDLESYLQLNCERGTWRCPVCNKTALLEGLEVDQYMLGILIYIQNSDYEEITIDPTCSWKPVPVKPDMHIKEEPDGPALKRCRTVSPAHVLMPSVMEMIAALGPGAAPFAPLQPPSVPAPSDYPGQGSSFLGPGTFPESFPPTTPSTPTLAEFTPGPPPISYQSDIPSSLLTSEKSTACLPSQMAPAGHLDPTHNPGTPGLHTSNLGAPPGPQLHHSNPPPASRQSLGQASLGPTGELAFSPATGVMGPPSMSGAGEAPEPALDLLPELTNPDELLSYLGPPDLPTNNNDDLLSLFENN
Sequence of UniProt Q86WB0 (Q86WB0 whole entry): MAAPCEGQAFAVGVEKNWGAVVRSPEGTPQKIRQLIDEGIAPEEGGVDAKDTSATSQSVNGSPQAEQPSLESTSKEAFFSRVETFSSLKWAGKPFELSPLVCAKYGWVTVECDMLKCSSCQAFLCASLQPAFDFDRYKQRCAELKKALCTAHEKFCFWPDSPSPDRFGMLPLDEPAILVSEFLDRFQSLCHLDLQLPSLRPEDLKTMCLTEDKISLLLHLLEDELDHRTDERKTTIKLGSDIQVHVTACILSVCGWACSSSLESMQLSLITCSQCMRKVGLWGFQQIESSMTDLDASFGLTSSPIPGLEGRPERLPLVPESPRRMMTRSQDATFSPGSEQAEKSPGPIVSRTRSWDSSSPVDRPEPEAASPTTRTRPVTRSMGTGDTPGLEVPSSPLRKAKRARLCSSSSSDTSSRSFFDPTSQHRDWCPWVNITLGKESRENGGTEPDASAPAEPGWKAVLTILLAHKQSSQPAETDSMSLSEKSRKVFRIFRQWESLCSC

Target | thermal stability z-score (lipoamide; [1]) | thermal stability z-score (lipoamide; arsenate co-treatment: none) | thermal stability z-score (potassium arsenate)
YWHAB (UniProt P31946) | 0.364 | 0.584 | 0.281
YWHAE (UniProt P62258) | 0.149 | 0.0341 | -0.368
YWHAG (UniProt P61981) | 0.0458 | -0.0254 | -0.403
YWHAH (UniProt Q04917) | 0.0489 | 0.303 | 0.138
YWHAQ (UniProt P27348) | 0.857 | 0.727 | 0.199
YWHAZ (UniProt P63104) | 0.146 | -0.0541 | -0.195
YY1 (UniProt P25490) | 0.0187 | -0.101 | 0.338
ZADH2 (UniProt Q8N4Q0) | 0.265 | 0.233 | 0.319
ZAK (UniProt Q9NYL2) | -0.237 | -0.237 | -0.105
ZBED1 (UniProt O96006) | -0.243 | -0.292 | 0.00958
ZBTB7A (UniProt O95365) | 0.428 | -0.495 | -1.13
ZBTB8OS (UniProt Q8IWT0) | -0.245 | 0.591 | -1.01
ZBTB10 (UniProt Q96DT7) | 0.00974 | -0.093 | -0.307
ZBTB33 (UniProt Q86T24) | -0.0938 | -0.0683 | -0.107
ZC2HC1A (UniProt Q96GY0) | 0.178 | -0.306 | -1.15
ZC3H4 (UniProt Q9UPT8) | 0.112 | -0.278 | -1.7
ZC3H7A (UniProt Q8IWR0) | -0.124 | -0.0131 | -0.613
ZC3H7B (UniProt Q9UGR2) | -0.082 | -0.0985 | -0.647
ZC3H8 (UniProt Q8N5P1) | -0.0194 | -0.277 | -0.576
ZC3H11A (UniProt O75152) | 0.0837 | -0.0442 | -0.845
ZC3H12A (UniProt Q5D1E8) | 0.0783 | -0.187 | -0.189
ZC3H14 (UniProt Q6PJT7) | 0.686 | -0.0584 | -5.55
ZC3H15 (UniProt Q8WU90) | -0.032 | -0.0996 | 0.0266
ZC3H18 (UniProt Q86VM9) | 1.11 | 0.987 | -1.11
ZC3HAV1 (UniProt Q7Z2W4) | -0.627 | 0.183 | 0.156
ZC3HAV1L (UniProt Q96H79) | 0.323 | -0.218 | 0.0902
ZC3HC1 (UniProt Q86WB0) | -0.377 | 0.164 | -0.364
ZCCHC6 (UniProt Q5VYS8) | -0.043 | -0.0119 | -0.0705

Target | thermal stability z-score (lipoamide; [1]) | thermal stability z-score (lipoamide; arsenate co-treatment: none) | thermal stability z-score (potassium arsenate)
ZCCHC8 (UniProt Q6NZY4) | 0.464 | 0.344 | -0.318
ZCCHC11 (UniProt Q5TAX3) | -0.38 | -0.287 | -0.424
ZCRB1 (UniProt Q8TBF4) | 0.506 | 0.194 | 0.155
ZDHHC5 (UniProt Q9C0B5) | -0.762 | 0.0706 | -0.438
ZDHHC6 (UniProt Q9H6R6) | 0.211 | -0.0578 | -0.412
ZDHHC13 (UniProt Q8IUH4) | 0.0485 | -0.0918 | 0.144
ZDHHC17 (UniProt Q8IUH5) | 0.571 | 1.07 | 0.191
ZDHHC20 (UniProt Q5W0Z9) | 0.527 | 0.247 | 0.242
ZFAND1 (UniProt Q8TCF1) | 0.233 | 0.29 | -0.247
ZFAND3 (UniProt Q9H8U3) | 0.918 | 0.518 | -1.25
ZFAND5 (UniProt O76080) | 1.13 | 0.84 | 0.118
ZFAND6 (UniProt Q6FIF0) | 0.56 | 0.219 | -0.0508
ZFC3H1 (UniProt O60293) | 0.164 | -0.0359 | -0.434
ZFP36L2 (UniProt P47974) | -0.198 | 0.12 | -0.0646
ZFP91 (UniProt Q96JP5) | -0.301 | 0.00195 | -0.352
ZFPL1 (UniProt O95159) | -0.552 | -1.06 | -1.02
ZFR (UniProt Q96KR1) | 0.561 | 0.0288 | -0.37
ZFYVE9 (UniProt O95405) | -0.0978 | -0.0701 | -0.021
ZFYVE16 (UniProt Q7Z3T8) | -0.45 | 0.222 | -0.676
ZFYVE19 (UniProt Q96K21) | -0.473 | -0.599 | -3.34
ZFYVE27 (UniProt Q5T4F4) | -0.0642 | -0.19 | 0.0943
ZGPAT (UniProt Q8N5A5) | -0.303 | -0.13 | -0.307
ZHX1 (UniProt Q9UKY1) | 0.0297 | 0.122 | -0.0668
ZHX3 (UniProt Q9H4I2) | -0.187 | -0.116 | -0.227
ZKSCAN1 (UniProt P17029) | -0.0617 | 0.0599 | 0.128
ZMAT2 (UniProt Q96NC0) | -0.00196 | -0.398 | -1.13
ZMIZ2 (UniProt Q8NF64) | -0.177 | -0.321 | -0.482
